Data published in patent US20060148692A1, “Novel protein and its dna” (priority 2003, published 2006).

What was measured:
GeneBank No. 170665 [1] = experiment: Gene expression analysis (oligonucleotide microarray) in rat primary nerve cells under endoplasmic reticulum stress; type: cell-based; conditions: standardized with the median (=1)
Experimental: Rat primary nerve cells prepared from TP-17 CD rats (Nippon Charles River) were suspended in B27-containing neurobasal medium (NB medium, GIBCO), then put at a density of 250,000 cells/well in a type I collagen-coated 24-well plate (SUMILON), and cultured for 3 days. (i) Tunicamycin (Tnc) was added at a final concentration of 100 nM to the cultured cells, (ii) thapsigargin (Thap) was added at a final concentration of 2 nM to the cultured cells, or (iii) after the medium was exchanged twice with glucose-free B27-containing DMEM medium, 2-deoxyglucose (2DG) was added at a concentration of 3 mM to the cultured cells. After 4, 8, and 24 hours, total RNA was extracted from the respective cells by using RNeasy Mini Kit (Qiagen) according to its instructions. As the control, the cells to which each medium was added in place of the above chemicals (Tnc, Thap and 2DG) (cells to which no chemical was added) were used. These were used as the material to conduct gene expression analysis using an oligonucleotide microarray (Rat Genome U34A, Affymetrix).
The experimental method was in accordance with instructions of Affymetrix (Expression analysis technical manual). As a result of comparison of gene expression profiles of the cells stimulated with each chemical and the cells to which no chemical was added, the expression of GeneBank No. 170665 was promoted by endoplasmic reticulum stress stimulation [the above (i), (ii) and (iii)] (Table 1).

GeneBank No. 170665 [2] = experiment: Gene expression analysis (oligonucleotide microarray) in rat primary nerve cells stimulated with β-amyloid; type: cell-based; conditions: β-amyloid 25 nM, standardized with the median (=1)
Experimental: For the purpose of examining whether the expression of GeneBank No. 170665 whose expression was promoted by endoplasmic reticulum stress was influenced by β-amyloid stimulation, gene expression analysis was conducted using the cells stimulated with β-amyloid in the same manner as in Example 1.
Rat primary nerve cells prepared in the same manner as in Example 1 were suspended in N2-containing DMEM medium (GIBCO), then put at a density of 250,000 cells/well and cultured for 4 days. After culture, β-amyloid suspended at a final concentration of 25 nM in the above medium was added to the cells. After 4, 8, and 24 hours, total RNA was extracted from the cells and gene analysis was conducted in the same manner as in Example 1. As the control, the cells to which the above medium was added in place of β-amyloid were used. The expression of GeneBank No. 170665 was promoted in the cells stimulated with β-amyloid, as compared with the control (Table 2).

SK-N-AS cells = experiment: DNA cleavage accompanying tunicamycin-induced cell-death (CELL DEATH DETECTION ELISA PLUS) in transformed cells; type: cell-based, human; conditions: SK-N-AS cells transformed with the C1 gene vs pcDNA3.1 control cells; tunicamycin for 1 or 2 days
Experimental: A plasmid comprising the nucleotide sequence represented by SEQ ID NO:2 was designated C1-pcDNA3.1/V5-His TOPO, and a transformant having the plasmid was designated Escherichia coli DH5α/C1-pcDNA3.1N5-His TOPO. This transformant was cultured in LB medium, and the vector was recovered by using QUAGEN plasmid midi kit (Qiagen). This C1 gene expression vector was transformed into SK-N-AS cells by using Nucleofector (AMAXA). As the control, pcDNA3.1 (Invitrogen) was transformed into SK-N-AS cells.
The respective transformed cells were put at a density of 7500 cells/well in a type I collagen-coated 96-well plate (IWAKI) and then cultured overnight, and after tunicamycin was added at various concentrations, the cells were cultured for 1 or 2 days to induce cell-death. After culture, DNA cleavage accompanying cell-death was detected by using CELL DEATH DETECTION ELISA^PLUS kit (Roche). The experimental method was in accordance with instructions attached to the kit.

IMR-32 cells = experiment: Aβ40 and Aβ42 concentration in culture supernatant of transformed cells by ELISA; type: cell-based; conditions: IMR-32 cells transformed with C1 vs GFP control cells; 24 hours after medium exchange
Experimental: The C1 gene expression vector described in Example 4 was transformed into IMR-32 cells by using Nucleofector (AMAXA). As the control, a GFP gene expression vector (Wako) was transformed into other IMR-32 cells. The respective transformed cells were put at a density of 1,000,000 cells/well in a type I collagen-coated 24-well plate (IWAKI) and cultured for 16 hours. After the medium was exchanged with a new one, the cells were cultured for additional 24 hours, and the concentrations of Aβ40 and Aβ42 in the culture supernatant were measured respectively by ELISA (Biochemistry 34, 10272-10278, 1995).

## tunicamycin
GeneBank No. 170665 [1]; tunicamycin 100 nM, after 4 hours
  Gene expression level: 3.00
GeneBank No. 170665 [1]; tunicamycin 100 nM, after 8 hours
  Gene expression level: 2.81
GeneBank No. 170665 [1]; tunicamycin 100 nM, after 24 hours
  Gene expression level: 3.63

## β-amyloid
GeneBank No. 170665 [2]; after 4 hours
  Gene expression level: 3.44
GeneBank No. 170665 [2]; after 8 hours
  Gene expression level: 6.99
GeneBank No. 170665 [2]; after 24 hours
  Gene expression level: 4.40

## O=CC[C@@H](O)[C@H](O)[C@H](O)CO [2DG, 2-deoxyglucose]
GeneBank No. 170665 [1]; 2DG 3 mM in glucose-free DMEM medium, after 4 hours
  Gene expression level: 16.71
GeneBank No. 170665 [1]; 2DG 3 mM in glucose-free DMEM medium, after 8 hours
  Gene expression level: 15.11
GeneBank No. 170665 [1]; 2DG 3 mM in glucose-free DMEM medium, after 24 hours
  Gene expression level: 14.55

## C/C=C(/C)C(=O)O[C@H]1C(C)=C2[C@H]([C@@H]1OC(=O)CCCCCCC)[C@@](C)(OC(C)=O)C[C@H](OC(=O)CCC)[C@@]1(O)[C@H]2OC(=O)[C@@]1(C)O [thapsigargin]
GeneBank No. 170665 [1]; thapsigargin 2 nM, after 4 hours
  Gene expression level: 8.77
GeneBank No. 170665 [1]; thapsigargin 2 nM, after 8 hours
  Gene expression level: 9.65
GeneBank No. 170665 [1]; thapsigargin 2 nM, after 24 hours
  Gene expression level: 7.56

B1: C1: 264-amino-acid protein (SEQ ID NO: 1) encoded by SEQ ID NO:2; tested by transforming cells with C1 gene expression vector (protein, listed as Homo sapiens)
chain: MGGAQLELPSGARPGVCVRRSFRAHAGDQPRRPPGPIPVPGTMKQESAAPNTPPTSQSPTPSAQFPRNDGDPQALWIFGYGSLVWRPDFAYSDSRVGFVRGYSRRFWQGDTFHRGSDKMPGRVVTLLEDHEGCTWGVAYQVQGEQVSKALKYLNVREAVLGGYDTKEVTFYPQDAPDQPLKALAYVATPQNPGYLGPAPEEAIATQILACRGFSGHNLEYLLRLADFMQLCGPQAQDEHLAAIVDAVGTMLPCFCPTEQALALV
SK-N-AS cells
  DNA cleavage (cell-death): promoted
IMR-32 cells
  Aβ40 concentration in culture supernatant: reduced
  Aβ42 concentration in culture supernatant: reduced
